Measurements published in patent US12459951B2, “Compounds that interact with RAS superfamily proteins for treatment of cancers, inflammatory diseases, rasopathies, and fibrotic disease” (SHY Therapeutics, LLC, priority 2022, dated 2025).
Where two headings read alike, the source gives them in different places.

Key:
MAPK p38 phosphorylation = test: MAPK p38 Activation Assay (western blot), Panc-1; type: cell-based, human; conditions: at 10 μM, Panc-1 pancreatic cancer cell line; starred symbols = activation
In short: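 Panc-1 cells (KRas G12D) were treated with compound for 6 h at 37 °C, at 10 μM or as serial dilutions for IC50, with 0.3% DMSO. Method 1 used overnight serum-starved cells (0.5% FBS) stimulated with 1.5 ng/ml EGF for 15 min; Method 2 used unstimulated cells in 10% FBS. Phospho-p38 (Thr180/Tyr182) was detected by western blot.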

[1] = test system: MiaPaca-2 (expressing KRAS G12C mutant); test: Proliferation Assay (Cell Viability Assay); type: cell-based; conditions: Homo sapiens, MIA PaCa-2
In short: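 MiaPaca-2 cells (KRAS G12C) were grown in DMEM-high glucose with 10% FBS, seeded at 2000–5000 cells/well and cultured overnight. Compounds were added at 10 μM final, or as serial dilutions for IC50, in 0.3% DMSO/10% FBS for 2–4 days at 37 °C, 5% CO2. Viability was measured with CellTiter 96 Aqueous One and % inhibition calculated.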

[2] = read-out: Proliferation in MiaPaca-2: IC50

SMILES	IC50 [1, 2]	IC50 ([1]; MiaPaca2, pancreatic, KRas G12C, read-out: Proliferation assay IC50)	IC50 ([1]; Proliferation assay, MiaPaca-2, read-out: MiaPaca-2 IC50 (nM) Pancreatic)	% inh of MAPK p38 in Panc-1 (MAPK p38 phosphorylation)
COc1cccc(-c2cn3nc(-c4nccn4C)nc(N[C@H]4C[C@H](OC)C4)c3c2-c2ccccc2)c1Cl [Compound 32, 6-(2-Chloro-3-methoxyphenyl)-N-((1r,3r)-3-methoxycyclobutyl)-2-(1-methyl-1H-imidazol-2-yl)-5-phenylpyrrolo[2,1-f][1,2,4]triazin-4-amine]	150 to 500 nM	–	–	H (H = 100% inhibition)
COCCNc1nc(-c2nccn2C)nn2cc(-c3ccn(C(C)C)n3)c(C(C)C)c12 [Compound 35, 5-Isopropyl-6-(1-isopropyl-1H-pyrazol-3-yl)-N-(2-methoxyethyl)-2-(1-methyl-1H-imidazol-2-yl)pyrrolo[2,1-f][1,2,4]triazin-4-amine]	> 1000 nM	–	–	H* (H* ≥ 100% activation)
COc1cccc(-c2cn3nc(-c4nccn4C)nc(N[C@H]4C[C@H](OC)C4)c3c2-c2ccccc2)c1F [Compound 42, 6-(2-Fluoro-3-methoxyphenyl)-N-((1r,3r)-3-methoxycyclobutyl)-2-(1-methyl-1H-imidazol-2-yl)-5-phenylpyrrolo[2,1-f][1,2,4]triazin-4-amine]	510 to 1000 nM	–	–	H* (H* ≥ 100% activation)
COCCO[C@H]1C[C@H](Nc2nc(-c3nccn3C)nn3cc(-c4cccc(OC)c4F)c(-c4ccccc4)c23)C1 [Compound 44, 6-(2-Fluoro-3-methoxyphenyl)-N-((1r,3r)-3-(2-methoxyethoxy)cyclobutyl)-2-(1-methyl-1H-imidazol-2-yl)-5-phenylpyrrolo[2,1-f][1,2,4]triazin-4-amine]	> 1000 nM	–	–	H* (H* ≥ 100% activation)
COc1cccc(-c2cn3nc(-c4nccn4C)nc(N[C@H]4C[C@H](OC)C4)c3c2-c2ccccn2)c1F [Compound 45, 6-(2-Fluoro-3-methoxyphenyl)-N-((1r,3r)-3-methoxycyclobutyl)-2-(1-methyl-1H-imidazol-2-yl)-5-(pyridin-2-yl)pyrrolo[2,1-f][1,2,4]triazin-4-amine]	> 1000 nM	–	–	H* (H* ≥ 100% activation)
COc1cccc(-c2cn3nc(-c4nccn4C)nc(N[C@H]4C[C@H](OC)C4)c3c2-c2ccn(C)n2)c1F [Compound 47, 6-(2-Fluoro-3-methoxyphenyl)-N-((1r,3r)-3-methoxycyclobutyl)-2-(1-methyl-1H-imidazol-2-yl)-5-(1-methyl-1H-pyrazol-3-yl)pyrrolo[2,1-f][1,2,4]triazin-4-amine]	> 1000 nM	–	–	F (F = 31-74% inhibition)
COc1cc(Nc2nc(-c3nccn3C)nn3cc(-c4ccn(C(C)C)n4)c(C)c23)n[nH]1 [Compound 51, 6-(1-Isopropyl-1H-pyrazol-3-yl)-N-(5-methoxy-1H-pyrazol-3-yl)-5-methyl-2-(1-methyl-1H-imidazol-2-yl)pyrrolo[2,1-f][1,2,4]triazin-4-amine]	> 1000 nM	–	–	H* (H* ≥ 100% activation)
Cc1c(-c2ccn(C(C)C)n2)cn2nc(-c3nccn3C)nc(Nc3ccncc3)c12 [Compound 52, 6-(1-Isopropyl-1H-pyrazol-3-yl)-5-methyl-2-(1-methyl-1H-imidazol-2-yl)-N-(pyridin-4-yl)pyrrolo[2,1-f][1,2,4]triazin-4-amine]	> 1000 nM	–	–	F* (F* = 31-74% activation)
COc1cnc(Nc2nc(-c3nccn3C)nn3cc(-c4ccn(C(C)C)n4)c(C)c23)nc1 [Compound 56, 6-(1-Isopropyl-1H-pyrazol-3-yl)-N-(5-methoxypyrimidin-2-yl)-5-methyl-2-(1-methyl-1H-imidazol-2-yl)pyrrolo[2,1-f][1,2,4]triazin-4-amine]	150 to 500 nM	–	–	H* (H* ≥ 100% activation)
Cc1c(-c2ccn(C(C)C)n2)cn2nc(-c3nccn3C)nc(Nc3nnco3)c12 [Compound 59, N-(6-(1-Isopropyl-1H-pyrazol-3-yl)-5-methyl-2-(1-methyl-1H-imidazol-2-yl)pyrrolo[2,1-f][1,2,4]triazin-4-yl)-1,3,4-oxadiazol-2-amine]	150 to 500 nM	–	–	H* (H* ≥ 100% activation)
Cc1c(-c2ccn(C(C)C)n2)cn2nc(-c3nccn3C)nc(Nc3ncco3)c12 [Compound 60, N-(6-(1-Isopropyl-1H-pyrazol-3-yl)-5-methyl-2-(1-methyl-1H-imidazol-2-yl)pyrrolo[2,1-f][1,2,4]triazin-4-yl)oxazol-2-amine]	> 1000 nM	–	–	H* (H* ≥ 100% activation)
Cc1c(-c2ccn(C(C)C)n2)cn2nc(-c3nccn3C)nc(Nc3ccn(C)n3)c12 [Compound 61, 6-(1-Isopropyl-1H-pyrazol-3-yl)-5-methyl-2-(1-methyl-1H-imidazol-2-yl)-N-(1-methyl-1H-pyrazol-3-yl)pyrrolo[2,1-f][1,2,4]triazin-4-amine]	510 to 1000 nM	–	–	H* (H* ≥ 100% activation)
COc1cc(Nc2nc(-c3nccn3C)nn3cc(-c4cccc(OC)n4)c(C)c23)ncn1 [Compound 65, 6-(6-Methoxypyridin-2-yl)-N-(6-methoxypyrimidin-4-yl)-5-methyl-2-(1-methyl-1H-imidazol-2-yl)pyrrolo[2,1-f][1,2,4]triazin-4-amine]	< 150 nM	–	–	H* (H* ≥ 100% activation)
COc1ccc(-c2cn3nc(-c4nccn4C)nc(Nc4cc(OC)ncn4)c3c2C)cn1 [Compound 66, 6-(6-Methoxypyridin-3-yl)-N-(6-methoxypyrimidin-4-yl)-5-methyl-2-(1-methyl-1H-imidazol-2-yl)pyrrolo[2,1-f][1,2,4]triazin-4-amine]	> 1000 nM	–	–	H* (H* ≥ 100% activation)
Cc1c(-c2ccn(C(C)C)n2)cn2nc(-c3nccn3C)nc(Nc3nnc(C4CC4)o3)c12 [Compound 67, 5-Cyclopropyl-N-(6-(1-isopropyl-1H-pyrazol-3-yl)-5-methyl-2-(1-methyl-1H-imidazol-2-yl)pyrrolo[2,1-f][1,2,4]triazin-4-yl)-1,3,4-oxadiazol-2-amine]	> 1000 nM	–	–	H* (H* ≥ 100% activation)
Cc1c(-c2ccn(C(C)C)n2)cn2nc(-c3nccn3C)nc(Nc3cc(C4CC4)no3)c12 [Compound 69, 3-Cyclopropyl-N-(6-(1-isopropyl-1H-pyrazol-3-yl)-5-methyl-2-(1-methyl-1H-imidazol-2-yl)pyrrolo[2,1-f][1,2,4]triazin-4-yl)isoxazol-5-amine]	> 1000 nM	–	–	H* (H* ≥ 100% activation)

More lines, main results first:

IC50 [1, 2]	IC50 ([1]; MiaPaca2, pancreatic, KRas G12C, read-out: Proliferation assay IC50)	IC50 ([1]; Proliferation assay, MiaPaca-2, read-out: MiaPaca-2 IC50 (nM) Pancreatic)	SMILES	% inh of MAPK p38 in Panc-1 (MAPK p38 phosphorylation)
< 150 nM	–	–	COc1ccnc(Nc2nc(-c3nccn3C)nn3cc(-c4ccn(C(C)C)n4)c(C)c23)n1 [Compound 53, 6-(1-Isopropyl-1H-pyrazol-3-yl)-N-(4-methoxypyrimidin-2-yl)-5-methyl-2-(1-methyl-1H-imidazol-2-yl)pyrrolo[2,1-f][1,2,4]triazin-4-amine]	H* (H* ≥ 100% activation)
< 150 nM	–	–	Cc1c(-c2ccn(C(C)C)n2)cn2nc(-c3nccn3C)nc(Nc3ncccn3)c12 [Compound 54, 6-(1-Isopropyl-1H-pyrazol-3-yl)-5-methyl-2-(1-methyl-1H-imidazol-2-yl)-N-(pyrimidin-2-yl)pyrrolo[2,1-f][1,2,4]triazin-4-amine]	H* (H* ≥ 100% activation)
< 150 nM	–	–	Cc1c(-c2ccn(C(C)C)n2)cn2nc(-c3nccn3C)nc(Nc3ccncn3)c12 [Compound 55, 6-(1-Isopropyl-1H-pyrazol-3-yl)-5-methyl-2-(1-methyl-1H-imidazol-2-yl)-N-(pyrimidin-4-yl)pyrrolo[2,1-f][1,2,4]triazin-4-amine]	H* (H* ≥ 100% activation)
< 150 nM	–	–	Cc1c(-c2ccn(C(C)C)n2)cn2nc(-c3nccn3C)nc(Nc3ccccn3)c12 [Compound 57, 6-(1-Isopropyl-1H-pyrazol-3-yl)-5-methyl-2-(1-methyl-1H-imidazol-2-yl)-N-(pyridin-2-yl)pyrrolo[2,1-f][1,2,4]triazin-4-amine]	E* (E* = 1-30% activation)
< 150 nM	< 150 nM	1 to 10 nM	COc1ccnc(Nc2nc(-c3nccn3C)nn3cc(-c4ccn(C(C)C)n4)c(C)c23)c1 [Compound 58, 6-(1-Isopropyl-1H-pyrazol-3-yl)-N-(4-methoxypyridin-2-yl)-5-methyl-2-(1-methyl-1H-imidazol-2-yl)pyrrolo[2,1-f][1,2,4]triazin-4-amine]	G* (G* = 75-99% activation)
< 150 nM	–	–	Cc1c(-c2ccn(C(C)C)n2)cn2nc(-c3nccn3C)nc(Nc3cnccn3)c12 [Compound 62, 6-(1-Isopropyl-1H-pyrazol-3-yl)-5-methyl-2-(1-methyl-1H-imidazol-2-yl)-N-(pyrazin-2-yl)pyrrolo[2,1-f][1,2,4]triazin-4-amine]	H* (H* ≥ 100% activation)
< 150 nM	–	–	COc1cc(Nc2nc(-c3nccn3C)nn3cc(-c4ccn(C)n4)c(C)c23)ncn1 [Compound 63, N-(6-Methoxypyrimidin-4-yl)-5-methyl-2-(1-methyl-1H-imidazol-2-yl)-6-(1-methyl-1H-pyrazol-3-yl)pyrrolo[2,1-f][1,2,4]triazin-4-amine]	H* (H* ≥ 100% activation)
< 150 nM	–	–	CCn1ccc(-c2cn3nc(-c4nccn4C)nc(Nc4cc(OC)ncn4)c3c2C)n1 [Compound 64, 6-(1-Ethyl-1H-pyrazol-3-yl)-N-(6-methoxypyrimidin-4-yl)-5-methyl-2-(1-methyl-1H-imidazol-2-yl)pyrrolo[2,1-f][1,2,4]triazin-4-amine]	H* (H* ≥ 100% activation)
